{"source": "patent US20090298838A1", "about": "“Method for Determination of Effective Dose of Methotrexate” (StaGen Co., Ltd., priority 2005, published 2009)", "key": {"[1]": {"tested_on": "patients suffering from rheumatoid arthritis", "test": "Relationship between genotype of A1298C polymorphism in the MTHFR gene and dose of methotrexate 12 months after start of administration (157 patients)", "type": "in vivo, human", "details": "for Risk ratio of high dose: high dose = more than 6 mg/week at 12 months", "experimental": "Target patients were 157 patients (M/F=24/133) suffering from rheumatoid arthritis who were attending to Institute of Rheumatology Tokyo Women's Medical University Hospital. All of those patients were different from patients examined in Non-Patent Document 3.\nExaminations were performed on genotypes of A1298C in the MTHFR gene in these 157 patients suffering from rheumatoid arthritis and doses of methotrexate to the patients 12 months after a start of administration.\nGenomic DNA was extracted from leukocytes in peripheral blood of each patient suffering from rheumatoid arthritis. From the genomic DNA, a DNA region including A1298C in the MTHFR gene was amplified by PCR. The primers shown in SEQ ID NO: 1 and SEQ ID NO: 2 in Sequence Listing were used for the amplification.\nThe DNA amplification reaction was performed in a system of a total volume of 50 μl, which contains 5 μl of 10×PCR Buffer (Applied Biosystem, Japan), 0.5 μl (=2.5 U) of AmpliTaq Gold (Applied Biosystem, Japan), 5.01 of 8 mM dNTP (200 μM of each dNTP), and 1 μl of each 10 pmole primer (0.2 μM of each primer). Conditions of the PCR included: totally 34 cycles of denaturing at 95° C. for 10 minutes, of reactions each at 95° C. for 30 seconds, at 65° C. for 30 seconds, and at 72° C. for 60 seconds; and final extension at 72° C. for 7 minutes.\nThe products amplified by the PCR were cut by the restriction enzyme Fnu4I and subjected to electrophoresis to examine whether they were cut or not, to thereby determine the genotypes (A/A, A/C, C/C) in each patient.\nAlleles and genotypes in group were compared by using Fisher's exact test for statistic analysis and Chi-square test, and Excel was used as a statistical software.\nIn the present Example, a dose of more than 6 mg/week 12 months after the start of the administration of the methotrexate was defined as a high dose, and otherwise defined as a low dose. Individuals were classified into A/A, A/C, and C/C based on the genotypes of A1298C polymorphism in the MTHFR and summarized to a relationship between the genotypes and the high dose. As shown in FIG. 1 and Table 2, a ratio of the high dose of the methotrexate was high in the order of A/A>A/C>C/C in the genotypes. […] A possibility that patients having the A/A genotype are required to have a high dose of the methotrexate is 49%. Compared with this, possibilities of patients having the A/C genotype and patients having the C/C genotype were 28% and 13%, respectively (Table 2 and FIG. 1). There were a difference of 1.7 (risk ratio, P<0.05) between A/A and A/C, and a difference of 3.8 (risk ratio, P<0.05) between A/A and C/C.\nTable 3 and FIG. 2 show a relationship between the A/A genotype of A1298C polymorphism in the MTHFR and a dose and a relationship between the other genotypes (A/C and C/C) and a dose in all the subjects of the patients suffering from the rheumatoid arthritis. In the present reference example, the dose of more than 6 mg/week 12 months after the start of the administration of the methotrexate was defined as a high dose, and otherwise defined as a low dose. Genotypes of A1298C polymorphism in the MTHFR were classified into A/A and other genotype and summarized to a relationship between the genotypes and the high dose."}, "[2]": {"tested_on": "patients suffering from the rheumatoid arthritis", "details": "A/A genotype (68 individuals) versus A/C and C/C (31 individuals); administration for at least 3 months; cited from earlier work"}}, "note": "Marks after values point to notes of the source that are not given here.", "data": [{"smiles": "CN(Cc1cnc2nc(N)nc(N)c2n1)c1ccc(C(=O)N[C@@H](CCC(=O)O)C(=O)O)cc1", "note": "[methotrexate]", "values": [{"measurement": "Ratio of high dose", "setting": "[1]; A/A genotype, final dose more than 6 mg/week 12 months after start of administration", "value": "0.485*"}, {"measurement": "Ratio of high dose", "setting": "[1]; A/A genotype, final dose more than 6 mg/week 12 months after start of administration, listed as MTX", "value": "0.485*,**"}, {"measurement": "Possibility that patients are required to have a high dose", "setting": "[1]; A/A genotype, more than 6 mg/week at 12 months", "value": 49, "unit": "%"}, {"measurement": "Risk ratio of high dose", "setting": "[1]; A/A versus A/C genotype", "value": 1.7}, {"measurement": "Risk ratio of high dose", "setting": "[1]; A/A versus C/C genotype", "value": 3.8}, {"measurement": "Ratio of high dose", "setting": "[1]; A/C + C/C genotypes, dose more than 6 mg/week 12 months after start of administration", "value": "0.259}"}, {"measurement": "Ratio of high dose", "setting": "[1]; A/C genotype, final dose more than 6 mg/week 12 months after start of administration", "value": "0.283*"}, {"measurement": "Possibility that patients are required to have a high dose", "setting": "[1]; A/C genotype, more than 6 mg/week at 12 months", "value": 28, "unit": "%"}, {"measurement": "Ratio of high dose", "setting": "[1]; C/C genotype, final dose more than 6 mg/week 12 months after start of administration", "value": "0.125**"}, {"measurement": "Possibility that patients are required to have a high dose", "setting": "[1]; C/C genotype, more than 6 mg/week at 12 months", "value": 13, "unit": "%"}, {"measurement": "Ratio of high dose", "setting": "[1]; Total, all genotypes (157 persons), final dose more than 6 mg/week 12 months after start of administration", "value": 0.408}, {"measurement": "Individuals classified to a high dose", "setting": "[1]; either A/C or C/C genotype, more than 6 mg/week at 12 months", "value": 26, "unit": "%"}, {"measurement": "Proportion ratio of patients administered more than 5 mg/week", "setting": "[2]", "value": 1.78}]}]}
